Article PMC2994747, “Molecular Characterization of c-Abl/c-Src Kinase Inhibitors Targeted against Murine Tumour Progenitor Cells that Express Stem Cell Markers” (PLoS ONE, 2010)
Like-named read-outs stand apart in the source and are kept apart here.

Legend:
GammaD12 [1] = assay: Western blot, semi-quantitative protein expression; assay type: cell-based, mouse
Procedure: (§1) For the Western Blot analysis, cells were rinsed and lysed as previously described. An amount of 25 µg protein was used for SDS-PAGE. Antibodies for c-Abl (sc-131), Actin (sc-1616), Cdc2-p34 (sc-8395), EPS15 (sc-1840), FAK (sc-558), c-Fos (sc-52), p38 (sc-7972), p53 (sc-6243) and STAT5 (sc-835x) were obtained from Santa Cruz (Santa Cruz Biotechnology, Heidelberg, Germany), while c-Src (2109) and phospho-Src Y416 (2101) were purchased from Cell Signaling (Cell Signaling Technology, Frankfurt a. M., Germany). The EGFR (06-847), phospho-EGFR Y992 (07-821) and phospho-EGFR Y1045 (04-284) stem from Upstate (Upstate, Schwalbach, Germany) and the hnRNP-K (A300-676A) from Bethyl Labs (Bethyl Laboratories, Montgomery, Texas, USA). Finally p73 (IMG-246) was supplied by Imgenex (Imgenex, Hamburg, Germany). Depending on the primary antibody the secondary antibodies were either horseradish peroxidase-conjugated anti-mouse (AP 160P), anti-rabbit (AP 132P) or anti-sheep (AP 147P) (Chemicon, Schwalbach, Germany).
(§2) Semi-quantitative analysis were carried out with Kodak 1D Image Analysis Software in reference to the vehicle treated control cells (see supplementary table S7).

A2C12 [2] = assay: Western blot, semi-quantitative protein expression; assay type: cell-based, mouse
Procedure: as §1, §2

GammaA3 [3] = assay: Western blot, semi-quantitative protein expression; assay type: cell-based, mouse
Procedure: as §1, §2

BetaD5 [4] = assay: MTS cell viability assay; assay type: cell-based, mouse
Summary of the method: (§3)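 CaCo2, HepG2, A549 and murine NSCLC lines grown in DMEM/10% FCS at 37°C, treated in triplicate with inhibitors or vehicle (0.2% DMSO) for 24 h or 96 h. MTS reagent added for 1 h; absorbance read at 490 nm.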

GammaD12 [5] = assay: MTS cell viability assay; assay type: cell-based, mouse; settings: MTS
Summary of the method: as §3

A2C12 [6] = assay: MTS cell viability assay; assay type: cell-based, mouse
Summary of the method: as §3

GammaA3 [7] = assay: MTS cell viability assay; assay type: cell-based, mouse
Summary of the method: as §3

BetaD5 [8] = assay: Cell cycle analysis by flow cytometry; assay type: cell-based, mouse; settings: IC50 concentration, 96 h
Summary of the method: (§4)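 Cells trypsin-harvested, PBS-washed, stained with CycleTEST PLUS DNA kit (solution A 10 min at room temperature, then solutions B and C, C step at 4°C in dark). DNA content read by flow cytometry on FACScan.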

GammaD12 [9] = assay: Cell cycle analysis by flow cytometry; assay type: cell-based, mouse; settings: IC50 concentration, 96 h
Summary of the method: as §4

GammaA3 [10] = assay: Cell cycle analysis by flow cytometry; assay type: cell-based, mouse; settings: IC50 concentration, 96 h
Summary of the method: as §4

[11] = tested on: human and murine cell lines; assay: Western blot, statements over human and murine cell lines; assay type: cell-based; settings: IC50 concentration, 96 h
Procedure: as §1, §2

A549 = assay: Cell cycle analysis by flow cytometry; assay type: cell-based, human; settings: IC50 concentration, 96 h
Summary of the method: as §4

CaCo2 = assay: Cell cycle analysis by flow cytometry; assay type: cell-based, human; settings: IC50 concentration, 96 h
Summary of the method: as §4

HepG2 = assay: Cell cycle analysis by flow cytometry; assay type: cell-based, human; settings: IC50 concentration, 96 h
Summary of the method: as §4

[12] = 24 h, read-out: Calculated IC50 after single treatment for 24 h
[13] = 96 h, read-out: Calculated IC50 after daily treatment for 96 h
[14] = Mus musculus, 24 h, read-out: Calculated IC50 after single treatment for 24 h
[15] = Mus musculus, 96 h, read-out: Calculated IC50 after daily treatment for 96 h

CSc1nc(NCCc2ccc(Cl)cc2)c2cnn(CC(Cl)c3ccccc3)c2n1 (stereo not shown) [Si57]
Actin protein expression (GammaD12 [1]): 106
EGFR Y992-p protein expression (GammaD12 [1]): 62
EGFR Y1045-p protein expression (GammaD12 [1]): 96
EGFR protein expression (GammaD12 [1]): 89
EPS15 protein expression (GammaD12 [1]): 135
FAK protein expression (GammaD12 [1]): 106
STAT5 protein expression (GammaD12 [1]): 110
c-Abl protein expression (GammaD12 [1]): 212
c-Fos protein expression (GammaD12 [1]): 70
c-Src Y416-p protein expression (GammaD12 [1]): 90
c-Src protein expression (GammaD12 [1]): 103
hnRNP-K protein expression (GammaD12 [1]): 100
p38 protein expression (GammaD12 [1]): 29
p53 protein expression (GammaD12 [1]): 58
Actin protein expression (A2C12 [2]): 97
EGFR Y992-p protein expression (A2C12 [2]): 117
EGFR Y1045-p protein expression (A2C12 [2]): 29
EGFR protein expression (A2C12 [2]): 66
EPS15 protein expression (A2C12 [2]): 89
FAK protein expression (A2C12 [2]): 47
STAT5 protein expression (A2C12 [2]): 104
c-Abl protein expression (A2C12 [2]): 49
c-Fos protein expression (A2C12 [2]): 82
c-Src protein expression (A2C12 [2]): 92
hnRNP-K protein expression (A2C12 [2]): 104
p38 protein expression (A2C12 [2]): 59
p53 protein expression (A2C12 [2]): 60
p73 protein expression (A2C12 [2]): 40
Actin protein expression (GammaA3 [3]): 105
EGFR Y992-p protein expression (GammaA3 [3]): 90
EGFR Y1045-p protein expression (GammaA3 [3]): 15
EGFR protein expression (GammaA3 [3]): 39
EPS15 protein expression (GammaA3 [3]): 102
FAK protein expression (GammaA3 [3]): 101
STAT5 protein expression (GammaA3 [3]): 93
c-Abl protein expression (GammaA3 [3]): 62
c-Fos protein expression (GammaA3 [3]): 79
c-Src Y416-p protein expression (GammaA3 [3]): 256
c-Src protein expression (GammaA3 [3]): 104
hnRNP-K protein expression (GammaA3 [3]): 93
p38 protein expression (GammaA3 [3]): 38
p53 protein expression (GammaA3 [3]): 54
IC50 (BetaD5 [4]; [12]): 19.6 ± 1.5 µM
IC50 (BetaD5 [4]; [13]): 9.1 µM
IC50 (GammaD12 [5]; [12]): 14.6 ± 0.7 µM
IC50 (GammaD12 [5]; [13]): 4.8 ± 0.6 µM
IC50 (A2C12 [6]; [12]): 24.8 ± 0.2 µM
IC50 (A2C12 [6]; [13]): 5.4 ± 0.3 µM
IC50 (GammaA3 [7]; [12]): 26.6 ± 4.2 µM
IC50 (GammaA3 [7]; [13]): 5.8 ± 0.4 µM
Cells in G1 phase (BetaD5 [8]): 52.5%
Cells in G2 phase (BetaD5 [8]): 32.3%
Cells in S phase (BetaD5 [8]): 15.4%
Cells in G1 phase (GammaD12 [9]): 33%
Cells in G2 phase (GammaD12 [9]): 6%
Cells in S phase (GammaD12 [9]): 61.1%
Cells in G1 phase (GammaA3 [10]): 59.6%
Cells in G2 phase (GammaA3 [10]): 18%
Cells in S phase (GammaA3 [10]): 22.4%
hnRNP-K protein level [11]: remained equal
Cells in G1 phase (A549): 70.5%
Cells in G2 phase (A549): 5.5%
Cells in S phase (A549): 24%
Cells in G1 phase (CaCo2): 41.7%
Cells in G2 phase (CaCo2): 18.1%
Cells in S phase (CaCo2): 40.2%
Cells in G1 phase (HepG2): 63.9%
Cells in G2 phase (HepG2): 8.1%
Cells in S phase (HepG2): 28%

Clc1cccc(Nc2nc(SC3CCCC3)nc3c2cnn3CC(Cl)c2ccccc2)c1 (stereo not shown) [Si135]
Actin protein expression (GammaD12 [1]): 110
EGFR Y992-p protein expression (GammaD12 [1]): 181
EGFR Y1045-p protein expression (GammaD12 [1]): 132
EGFR protein expression (GammaD12 [1]): 95
EPS15 protein expression (GammaD12 [1]): 149
FAK protein expression (GammaD12 [1]): 117
STAT5 protein expression (GammaD12 [1]): 118
c-Abl protein expression (GammaD12 [1]): 152
c-Fos protein expression (GammaD12 [1]): 103
c-Src Y416-p protein expression (GammaD12 [1]): 140
c-Src protein expression (GammaD12 [1]): 89
hnRNP-K protein expression (GammaD12 [1]): 75
p38 protein expression (GammaD12 [1]): 18
p53 protein expression (GammaD12 [1]): 108
Actin protein expression (A2C12 [2]): 88
EGFR Y992-p protein expression (A2C12 [2]): 79
EGFR Y1045-p protein expression (A2C12 [2]): 69
EGFR protein expression (A2C12 [2]): 30
EPS15 protein expression (A2C12 [2]): 83
FAK protein expression (A2C12 [2]): 71
STAT5 protein expression (A2C12 [2]): 95
c-Abl protein expression (A2C12 [2]): 64
c-Fos protein expression (A2C12 [2]): 52
c-Src protein expression (A2C12 [2]): 95
hnRNP-K protein expression (A2C12 [2]): 87
p38 protein expression (A2C12 [2]): 33
p53 protein expression (A2C12 [2]): 58
p73 protein expression (A2C12 [2]): 43
Actin protein expression (GammaA3 [3]): 101
EGFR Y992-p protein expression (GammaA3 [3]): 70
EGFR Y1045-p protein expression (GammaA3 [3]): 31
EGFR protein expression (GammaA3 [3]): 25
EPS15 protein expression (GammaA3 [3]): 102
FAK protein expression (GammaA3 [3]): 104
STAT5 protein expression (GammaA3 [3]): 80
c-Abl protein expression (GammaA3 [3]): 65
c-Fos protein expression (GammaA3 [3]): 112
c-Src Y416-p protein expression (GammaA3 [3]): 216
c-Src protein expression (GammaA3 [3]): 107
hnRNP-K protein expression (GammaA3 [3]): 90
p38 protein expression (GammaA3 [3]): 48
p53 protein expression (GammaA3 [3]): 78
IC50 (BetaD5 [4]; [14]): 13 ± 2.2 µM
IC50 (BetaD5 [4]; [15]): 3.6 ± 0.2 µM
IC50 (GammaD12 [5]; [14]): 14.7 ± 0.6 µM
IC50 (GammaD12 [5]; [15]): 3.5 ± 0.2 µM
IC50 (A2C12 [6]; [14]): 25.5 ± 3.8 µM
IC50 (A2C12 [6]; [15]): 4.1 ± 0.4 µM
IC50 (GammaA3 [7]; [14]): 10 ± 2.2 µM
IC50 (GammaA3 [7]; [15]): 3.8 ± 0.2 µM
Cells in G1 phase (BetaD5 [8]): 73%
Cells in G2 phase (BetaD5 [8]): 22.3%
Cells in S phase (BetaD5 [8]): 4.7%
Cells in G1 phase (GammaD12 [9]): 35.5%
Cells in G2 phase (GammaD12 [9]): 12.5%
Cells in S phase (GammaD12 [9]): 51.9%
Cells in G1 phase (GammaA3 [10]): up to 75%
Cells in G2 phase (GammaA3 [10]): 14.9%
Cells in S phase (GammaA3 [10]): 10%
Cells in G1 phase (GammaA3 [10]; listed as Si 135): 75.1%
hnRNP-K protein level [11]: remained equal
Cells in G1 phase (A549): 50.8%
Cells in G2 phase (A549): 8.6%
Cells in S phase (A549): 40.6%
Cells in G1 phase (CaCo2): 42.1%
Cells in G2 phase (CaCo2): 12.1%
Cells in S phase (CaCo2): 45.8%
Cells in G1 phase (HepG2): 58%
Cells in G2 phase (HepG2): 9.5%
Cells in S phase (HepG2): 32.5%
